Consider 79 compounds from the METLIN SMRT retention time set (Domingo-Almenara et al. 2019).

SMILES strings stand for the structures.

The data set is described as follows: gradient 5% acetonitrile 3 min, to 50% in 2 min, to 85% in 15 min, held 3 min, 100 µL/min. The conditions noted are these: column: Zorbax Extend-C18 2.1 x 50 mm; eluents: water / acetonitrile, 0.1% formic acid. The procedure, abridged:
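Retention time was recorded from adduct peaks, which were picked computationally and each inspected manually. Pure standards ran in mixtures of ~100 molecules on HPLC coupled to a quadrupole time-of-flight mass spectrometer, in positive and negative ionization mode, through a Zorbax Extend-C18 column (2.1 × 50 mm, 1.8 μm) at 100 μL/min. Eluents were water and acetonitrile, each with 0.1% formic acid.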
In turn, `Cn1cc(-c2cc3n(n2)CCC(=O)N3CC(=O)NCCN2CCOCC2)c2ccccc21` had an RP-LC retention time of 612 s. In the case of `COc1ccc(OC)c(S(=O)(=O)Nc2cccn3c(C4CCC4)nnc23)c1` it was 772 s; in that of `O=C(c1cccnc1)N1CCC2(CC1)Nc1cc(F)ccc1-n1cccc12`, 792 s; in that of `Cc1ccc(S(=O)(=O)N2CCCN(c3ccc(=O)n(-c4ccccc4)n3)CC2)cc1C`, 912 s. The result for `COc1cc([C@@H]2c3cc4c(cc3[C@H](O)[C@@H](CO)[C@@H]2C(=O)NCC(C)C)OCO4)cc(OC)c1OC` reads 668 s; that for `CCOC(=O)Cc1csc(NC(=O)C2CC(=O)N(c3n[nH]c4ccccc34)C2)n1` (centres undefined), 689 s. The result for `COCCN(Cc1ccco1)c1nc(-c2ccc(OC)cc2)nc2ccccc12` reads 792 s; that for `Cn1nc(-c2nc(-c3cccc(F)c3)no2)c2c1CCN(C(=O)NC(C)(C)C)C2`, 964 s. Consider `COC(=O)c1c(C)[nH]c(C(=O)N2CCC(CC(=O)NCc3cccc(Cl)c3)CC2)c1C`, for which the RP-LC retention time turned out to be 770 s. `CC(=O)c1cccc(NC(=O)Cn2c(-c3cnccn3)nc(C)c(C)c2=O)c1` returned an RP-LC retention time of 650 s. On to `O=C(NC(=O)c1c(Cl)nc2sccn12)Nc1ccc(Cl)cc1`, for which the RP-LC retention time was 977 s. In the case of `CC(C)c1ccccc1OCC(=O)Nc1cnn(C)c(=O)c1N1CCOCC1` it was 955 s; in that of `O=C(C1CCN(c2ccc(Sc3ccc(Cl)cc3)nn2)CC1)N1CCN(c2ncccn2)CC1`, 801 s. The result for `CCc1nnc(-c2ccc3ccn(CC(=O)Nc4cc(C)ccc4OC)c3c2)o1` reads 932 s; that for `Cn1c(=O)n(C)c2cc(N3CCCCC3)c(NC(=O)c3ccco3)cc21`, 872 s. In the case of `CCc1noc(NC(C)=O)c1-c1ccc(OC)c(S(=O)(=O)N2CCCCCC2)c1` it was 817 s; in that of `CCCC(NC(=O)c1ccc(C)cc1)C(=O)Nc1nc2ccccc2[nH]1` (centres undefined), 716 s; in that of `CCOC(=O)c1cn(CC(=O)Nc2ccc3c(c2)OCO3)c2nc(C)ccc2c1=O`, 715 s.

For the compound `O=C(CCC1CCCC1)N1CCN(C(=O)c2cc(-c3ccccn3)n[nH]2)CC1`, the RP-LC retention time came to 715 s. In the case of `Cc1ccccc1NS(=O)(=O)c1cc(-c2nc(C(C)(C)C)cs2)cs1` it was 1260 s; in that of `Cn1nc(C(=O)N2CCCC2)c2c1CCN(C(=O)CCC(=O)NCCCN1CCCC1)C2`, 574 s; in that of `CCS(=O)(=O)c1ccc(-c2ccc(NC(=O)c3ccc(Br)o3)cc2)nn1`, 765 s. The result for `COc1ccc(-c2ccnc3nc(-c4ccco4)nn23)c(F)c1` reads 819 s; that for `O=C1CN(C(=O)c2cnccn2)c2ccccc2N1`, 569 s. In the case of `O=C(NCc1cccnc1)C1CCN(Cc2cc3ccccc3n2Cc2ccccc2)CC1` it was 624 s; in that of `COc1ccc(C2CC(=O)N(c3cc(C)ccc3C)C(=O)C2)cc1OC`, 872 s. In turn, `CCC(C)(C)NC(=O)C1CCN(S(=O)(=O)c2c(C)[nH]c(C)c2C(=O)N2CCCCC2)CC1` yielded an RP-LC retention time of 746 s. As to `Cc1ccc(C)c(-c2nc(-c3ccc4c(c3)oc(=O)n4C(C)C)no2)c1`, the RP-LC retention time was found to be 1190 s. In the case of `CCn1c(=O)c(C(=O)NCCCc2ccccc2)nc2cccnc21` it was 586 s; in that of `CCN1CCC2(CC1)NC(=O)N(CC(=O)Nc1ccc(OC(F)(F)F)cc1)C2=O`, 582 s. As to `Cc1ccc(-c2noc(-c3nc(-c4ccncc4)no3)n2)cc1`, the RP-LC retention time stood at 1090 s. In the case of `Cc1cccc(-c2nc(Cn3nnc(-c4nc(-c5cccc(Cl)c5)no4)c3C)c(C)o2)c1` it was 1300 s. In turn, `COc1ccccc1CNC(=O)Cn1c(=O)cc(-c2nc(C)no2)c2ccccc21` had an RP-LC retention time of 836 s. The result for `O=C(Cc1cccs1)NC(Cc1ccccc1)c1nnc(N2CCCCC2)o1` (centres undefined) reads 843 s; that for `O=S(=O)(NCCN1CCOCC1)c1cc(-c2noc(C3CCCC3)n2)cs1`, 678 s. The result for `CCc1cccc(NC(=O)c2cn(C)nc2S(=O)(=O)N2CCSCC2)c1` reads 1030 s; that for `CCOC(=O)c1cnc2c(-c3ccccc3OC)c(C)nn2c1N`, 879 s; that for `CCOc1ccc(-c2csc(Cc3nc(-c4ccc(F)cc4)no3)n2)cc1`, 1250 s. The result for `CCOc1ccccc1C1NC(=O)N(CC(=O)Nc2ccc(C(F)(F)F)cc2)C2=C1C(=O)OC2` (centres undefined) reads 888 s. The compound `O=C(NCCC1CCN(C(=O)Nc2ccc(F)cc2F)CC1)c1cccs1` returned an RP-LC retention time of 737 s. The result for `CC(C)NC(=O)C(=O)NCc1n[nH]c(=O)c2ccccc12` reads 621 s; that for `CC(C)N1C(=O)C(C)(C(=O)NC2CCCCCC2)Oc2cccnc21` (centres undefined), 1080 s. In turn, `O=C(NCc1ccc(F)cc1)c1ccc(=O)n(CCN2CCOCC2)c1` had an RP-LC retention time of 599 s. In the case of `O=C(c1cc(C2CC2)[nH]n1)N1CC(n2cc(COCc3ccccc3)nn2)C1` it was 730 s; in that of `COc1ccccc1NC(=O)Cn1nc2cc(C)nc(-c3ccc(F)cc3)n2c1=O`, 851 s. In the case of `CCOC(=O)N1CCN(C(=O)CSc2ncnc3c2cnn3-c2ccc(F)cc2)CC1` it was 849 s; in that of `Fc1ccccc1CN1CCCN(c2ncccc2-c2nc(C3CC3)no2)CC1`, 675 s. The result for `CSc1ccc(-c2nc3ccc(Br)cn3c2NC2CCCCC2)cc1` reads 955 s; that for `Cc1nn(-c2ccccc2)c(C)c1C=NN1CCN(Cc2ccccc2)CC1`, 739 s; that for `COc1ccc(-c2ccc(CNc3ncn[nH]3)o2)cc1Cl`, 673 s.

`Cc1cc(F)ccc1NC(=O)Cc1nnc(-c2cnccn2)o1` gave an RP-LC retention time of 659 s. In the case of `CC1CCc2[nH]nc(C(=O)N3CCCCC3)c2C1` (centres undefined) it was 757 s; in that of `CCN1C(=O)c2ccccc2Oc2ccc(C(=O)NCc3ccc4c(c3)OCO4)cc21`, 1170 s; in that of `CC(C)CCn1nc2c(S(=O)(=O)N3CCOCC3)cccn2c1=O`, 758 s. In the case of `Cc1ccc(F)cc1S(=O)(=O)N[C@@H]1CN(c2ncccn2)C[C@H]1CN(C)C` it was 618 s; in that of `O=C(Nc1ccccc1)N1CCN(Cc2nc(-c3ccccc3)cs2)CC1`, 612 s. In the case of `Clc1ccccc1C1Cn2cnc(-c3nc(-c4cccnc4)no3)c2CO1` (centres undefined) it was 825 s.

`CN(C)c1ccc(C(CNC(=O)c2ccco2)N2CCc3ccccc3C2)cc1` (centres undefined): the RP-LC retention time was found to be 582 s. In the case of `Cn1c(CN2CCN(C(=O)Nc3ccc4c(c3)OCO4)CC2)nc2cc(C(=O)N3CCCC3)ccc21` it was 607 s; in that of `O=C(Cc1cccc2ccccc12)NCC1CCN(Cc2cccs2)CC1`, 572 s; in that of `CC(C)(C)NC(=O)Cc1cccn1-c1cccc(Cl)c1`, 1010 s.

In the case of `COc1cccc(NC(=O)Nc2ccc(-c3cn4ccc(C)nc4n3)cc2)c1`, the RP-LC retention time stood at 639 s. The result for `CN(C)c1ccc(NC(=O)Cn2cccc2-c2nc(-c3ccc4c(c3)OCO4)no2)cc1` reads 752 s; that for `Cc1nc(-c2ccc(OC3CCN(C(=O)c4[nH]nc5c4COc4ccccc4-5)C3)cc2)no1` (centres undefined), 846 s; that for `COc1ccc2cc(C(=O)N3CCC(C(C)C(=O)NCCc4c[nH]c5ccccc45)CC3)[nH]c2c1` (centres undefined), 818 s. In the case of `Cc1ccc(S(=O)(=O)N(C)c2ccc(OCC(=O)N3CCOCC3)cc2)cc1` it was 732 s; in that of `CCn1nc(C)c2ccn(CC(=O)NCc3ccc(Br)cc3)c(=O)c21`, 797 s. The result for `Cc1ccc(=O)n(CCNC(=O)c2cc(C)oc2C)n1` reads 616 s; that for `O=C(Nc1nnc(C2CCCCC2)o1)c1c[nH]c2ccccc12`, 714 s. In turn, `O=C(c1cc(F)ccc1F)N1CCN(c2cc(-c3ccc(Cl)cc3)[nH]n2)CC1` showed an RP-LC retention time of 847 s. In the case of `O=C(Nc1cccc(OCc2nnc(-c3ccccc3)o2)c1)c1cccnc1` it was 750 s; in that of `CN(C)C[C@@H]1CN(c2ncccn2)C[C@H]1NS(=O)(=O)c1cccc(C#N)c1`, 601 s.

As to `O=c1ccc(-c2nc(-c3ccc4c(c3)OCO4)no2)cn1Cc1cc(=O)n2ccccc2n1`, the RP-LC retention time was 740 s.

The compound `CCN1c2ccc(C)cc2C(=O)NC12CCN(C(=O)c1ccc(C(F)(F)F)cc1)CC2` returned an RP-LC retention time of 788 s. The result for `COc1ccc(-c2nc(CNC(=O)c3ccc(-c4noc(C(C)C)n4)cc3)no2)cc1` reads 1000 s; that for `CN(C)C(=O)c1cc2c(s1)CCC(C(=O)NCCc1ccncc1)C2` (centres undefined), 563 s; that for `O=C(c1ccccc1C(F)(F)F)N1CCN(S(=O)(=O)C2CC2)CC1`, 725 s.

In turn, `O=C(CN1CCC2(CC1)NC(=O)c1ccccc1N2)Nc1ccc(Cl)cc1` returned an RP-LC retention time of 637 s. The result for `O=C(OCc1cc(-c2cccs2)on1)c1ncc(-c2ccccc2)o1` reads 1060 s.
